Assay results as given in patent US20160030373A1, “2-AAA as a Biomarker and Therapeutic Agent for Diabetes” (THE GENERAL HOSPITAL CORPORATION, priority 2013, published 2016).

Key:
[1] = Plasma 2-AAA level in mice supplemented with 2-AAA; assay type: in vivo; conditions: 500 mg/kg/day via drinking water; by one week of treatment; p=0.018
Method: (§1) Intervention studies in mice were completed to examine whether 2-AAA might play a contributory or compensatory role in glucose homeostasis by performing 2-AAA. For this study, four independent cohorts of 24 C57B/L6 male mice entered the study protocol at 6 weeks of age. Two cohorts received the standard chow diet and two cohorts received a high-fat diet. Half of the mice assigned to each diet received 2-AAA (500 mg/kg/day equivalent to a starting dose of 12.03±0.30 mM) via the drinking water for up to five weeks. Pre-weighed food and water were administered to each cage. Food and water intake was monitored weekly. Mice supplemented with 2-AAA had 33% higher plasma levels of this metabolite by one week of treatment (p=0.018).
For the perigonadal adipose tissue, metabolites were first extracted by mixing harvested tissues with 6 μL per 1 mg of adipose tissue of a MeOH:Chloroform solution (2:1 v/v). The extracted adipose tissues were then homogenized for 4 minutes at 25 Hz in a TissueLyser II. […] A calibration curve using 2-AAA d3 (C/D/N Isotopes Inc, Quebec Canada) was generated for absolute quantitation of 2-AAA in plasma and tissue samples. […] An isotopically labeled standard was used to facilitate absolute quantitation of the metabolite of interest in the setting of the different biological matrices.

C57B/L6 male mice [2] = test: Intra-peritoneal glucose tolerance test (IPGTT) after chronic 2-AAA treatment; assay type: in vivo; conditions: IPGTT 1.5 mg/g; mice fed SCD and HFD for 5 weeks or greater
Method: FIG. 4 is a graph depicting plasma glucose levels in 2-AAA mice fed either a standard chow (left) or high-fat diet (right) following IPGTT challenge after completion of the 2-AAA chronic treatment in mice fed either the standard chow or high-fat diet. (n=12 mice per condition) (*p<0.05; **p<0.01).
(§2) Fasting insulin levels in mice were measured by an ELISA kit (Crystal Chem Inc., Downers Grove Ill.). After 5 weeks of 2-AAA treatment, and following a 6-hour fast, each group of mice was administered an intra-peritoneal glucose tolerance test (IPGTT; 1.5 mg/g of body weight; 75 mg/mL of glucose solution) or an insulin tolerance test (ITT; 0.00075 U of insulin/g of body weight, 0.15 U/ml insulin solution, Sigma-Aldrich, St. Louis, Mo.). For the IPGTT, venous blood samples were obtained from the tail vein immediately prior to glucose injection and then serially at 30, 60, and 120 minutes following the injection. For the ITT, venous blood samples were obtained from the tail vein immediately prior to the insulin injection and then serially at 15, 30, 45 and 60 minutes following the injection.
(§3) Additional studies were performed using acute physiologic challenges, including acute glucose and insulin administration. As expected, mice fed a HFD had more pronounced glucose excursions following the glucose challenge (FIG. 4). […]

[3] = Food intake and weight in control and 2-AAA treated mice; assay type: in vivo; conditions: 2-AAA 500 mg/kg/day via drinking water, up to 5 weeks
Description: FIGS. 3A and 3B are graphs depicting serial weights and food intake in control and 2-AAA treated animals.
as §1
Fasting plasma glucose levels were measured weekly in mice fed either a standard chow (left) or high-fat diet (right) beginning at 6 weeks of age, with simultaneous 2-AAA treatment via drinking water (500/mg/kg/day) or water alone for the subsequent 5 weeks. (n=24 mice per condition) (*p<0.05; **p<0.01; ***p<0.001). For mice on the SCD, fasting glucose levels were 109.5±3.8 mg/dL for the 2-aminoadipic treated animals as compared to 124.5±4.9 mg/dL, for the untreated controls after 5 weeks (p<0.01, FIG. 2A). […]

C57B/L6 male mice [4] = test: Insulin tolerance test (ITT, acute insulin challenge) after 2-AAA treatment; assay type: in vivo; conditions: ITT 0.00075 U insulin/g; SCD and HFD
Method: FIGS. 6A and 6B are graphs depicting plasma glucose levels 2-AAA mice fed either a standard chow (left) or high-fat diet (right) measured following acute insulin challenge (n=15 per condition).
as §2
as §3, with “4). In mice fed both the SCD and HFD for 5 weeks or greater, peak glucose concentrations following the glucose challenge were lower in the 2-AAA treated mice.” for “4).”

[5] = test system: Islets from male C57BL/6J mice; test: Insulin secretion from isolated mouse islets; assay type: cell-based; conditions: 30 μM 2-AAA for 6 hours; 2.5 mmol/l glucose; normalized to islet content
Method: FIG. 9 is a graph depicting insulin secretion from islets isolated from male C57BL/6J mice following incubation with 30 μM 2-AAA for 6 hours. Insulin was assayed using the Meso Scale Discovery multi array assay system for mouse/rat total insulin (Gaithersburg, Md., USA). Secretion was normalized to islet content. (n=3, p=0.016)
Islets from male C57BL/6J mice were isolated by collagenase digestion of the pancreas, purified by Ficoll density gradient and then handpicked. Mouse islets were cultured for 24 hours as previously described (26). For insulin secretion experiments, 15 islets were placed in each microcentrifuge tube and incubated in islet secretion buffer containing (in mmol/1) 120 NaCl, 5 KCl, 1 CaCl2, 1.2 MgCl2, 24 NaHCO3, 10 HEPES, and 2.5 glucose, bubbled with 95% O2/5% CO2 and supplemented with 0.5% (wt/vol) BSA. Experiments were performed by incubating islets in 1 ml of secretion buffer in the presence or absence of 30 μM 2-AAA for 6 hours at 37° C., 5% CO2. Insulin was assayed using the Meso Scale Discovery multi array assay system for mouse/rat total insulin (Gaithersburg, Md., USA). Secretion was normalized to islet content.

C57B/L6 male mice [6] = test: Fasting plasma insulin levels (ELISA) after 2-AAA treatment; assay type: in vivo; conditions: after 5 weeks of 2-AAA; increase seen in HFD animals
Method: FIG. 5 is a graph depicting fasting plasma insulin levels in 2-AAA mice fed either a standard chow (left) or high-fat diet (right) measured following completion of the 2-AAA treatment (5 weeks) in the mice on both diets (n=12 mice per condition) (*p<0.05).
as §2, §3

C57B/L6 male mice [7] = test: Fasting plasma glucose in mice given 2-AAA chronically via drinking water; assay type: in vivo; conditions: for fasting glucose levels: 2-AAA 500 mg/kg/day via drinking water, mean ± SEM
Method: FIGS. 2A and B are graphs depicting fasting plasma glucose levels in 2-AAA in mice fed either a standard chow (2A) or high-fat diet (2B). Fasting plasma glucose levels were measured weekly in mice fed either a standard chow (left) or high-fat diet (right) beginning at 6 weeks of age, with simultaneous 2-AAA treatment via drinking water (500/mg/kg/day) or water alone for the subsequent 5 weeks. (n=24 mice per condition) (*p<0.05; **p<0.01; ***p<0.001).
The effect of a Western-style diet on circulating 2-AAA levels in mice was examined. C57BL/6 male mice (Jackson Laboratories, Bar Harbor, Me.) were housed in separate cages with free access to food and water. Mice were fed a standard chow diet containing 22.5% protein, 52% carbohydrates, 6% fat, 6% ash and 4% fiber (Prolab Isopro RMH 3000, Brentwood, Mo.) or a high-fat diet containing 20 kcal % protein, 20 kcal % carbohydrate and 60 kcal % fat (DIO formula, D12492, Research Diets, Inc, New Brunswick, N.J.) as indicated. The total energy equivalent was 3.46 kcal/gm for the standard chow diet and 5.24 kcal/gm for the high fat diet.
as §1
Fasting plasma glucose levels were measured weekly in mice fed either a standard chow (left) or high-fat diet (right) beginning at 6 weeks of age, with simultaneous 2-AAA treatment via drinking water (500/mg/kg/day) or water alone for the subsequent 5 weeks. […]

Beta TC6 (BTC6) cells = test: Insulin secretion by BTC6 pancreatic beta cell line; assay type: cell-based, mouse; conditions: for insulin secretion: 100 μM, 2.5 mM glucose
Method: FIG. 8A is a graph depicting percent insulin secretion by BTC6 cells following incubation with 2-AAA at concentrations ranging from 0 to 100 μM for 0.5 to 72 hours.
FIG. 8B is a graph depicting the effects of 2-AAA (30 μM), clonidine (100 μM) and phentolamine (100 μM) on insulin secretion by BTC6 cells.
To investigate the connection between 2-AAA and the pancreas, insulin production by a pancreatic beta cell line that was acutely and chronically exposed to 2-AAA. Beta TC6 (BTC6) cells, an established model to examine insulin secretion (mouse insulinoma beta-TC-6 (ATCC® CRL-11506™) from ATCC (Manassas, Va.)) (27-29), were used at passage number 4-7, grown in DMEM (ATCC 2002-30), 15% FBS, with penicillin/streptomycin (100 IU/ml/100 μg/ml). Cells were plated on 24 well collagen plates at 40,000 cells per well, incubated with 2-AAA at varying concentrations ranging from 0 to 100 μM for 0 to 72 hours to assess whether this compound increases insulin secretion in a time and/or dose dependent fashion. On the day of experimentation, the cells were washed with PBS and the media was changed to DMEM without FBS or glucose to which 0.1% BSA was added. After 1 hour of incubation, this media was changed to serum free media containing 2.5 mM of glucose. Insulin production was measured in the supernatant after 1 additional hour of incubation. To assess the time response relationship, 2-AAA was added to the cells after plating on collagen and incubated for 0.5, 2, 6, and 72 hours.

Compound | increase in plasma levels of 2-AAA versus unsupplemented mice [1] [%] | peak glucose concentrations following the glucose challenge versus control (C57B/L6 male mice [2]) | differences in food intake or weight between treated and control mice [3] | effect on rate of decline in glucose levels following acute insulin challenge (C57B/L6 male mice [4]) | insulin release from islets [5] | fasting insulin levels versus untreated animals (C57B/L6 male mice [6]) | fasting glucose levels in treated mice versus water alone (C57B/L6 male mice [7]; both diets, p<0.001 by 2-way ANOVA after 5 weeks) | fasting glucose levels (C57B/L6 male mice [7]; mice on high-fat diet (HFD), at 5 weeks) [mg/dL] | fasting glucose levels (C57B/L6 male mice [7]; mice on standard chow diet (SCD), after 5 weeks) [mg/dL] | insulin secretion from BTC6 cells (Beta TC6 (BTC6) cells; 2-AAA 0 to 100 μM for 0.5 to 72 hours) | incubation time at which augmented insulin secretion was evident (Beta TC6 (BTC6) cells; BTC6 cells) | peak insulin secretion relative to that of phentolamine (172±8% of control) (Beta TC6 (BTC6) cells; BTC6 cells, 2-AAA 30 μM vs phentolamine 100 μM) | insulin secretion (Beta TC6 (BTC6) cells; BTC6 cells)
N[C@H](CCCC(=O)O)C(=O)O (stereo in doubt) [2-AAA, 2-aminoadipic acid] | 33 | lower | no significant differences | no effect | release insulin | further augmented | consistently lower | 134.5 ± 5.9 | 109.5 ± 3.8 | induced insulin secretion from BTC6 cells in a dose and time dependent fashion | at least 6 hours | comparable | –
Cc1ccc(N(CC2=NCCN2)c2cccc(O)c2)cc1 [phentolamine, reference compound] | – | – | – | – | – | – | – | – | – | – | – | – | 172±8 % of control
Clc1cccc(Cl)c1N=C1NCCN1 [clonidine, reference compound] | – | – | – | – | – | – | – | – | – | – | – | – | 60±3 % of control
